Laboratory results taken from paper PMC10530720, “Antimicrobial Activity and Toxicity of Newly Synthesized 4-[4-(benzylamino)butoxy]-9H-carbazole Derivatives” (International Journal of Molecular Sciences, 2023).
≈ marks a conversion by molar mass, not a printed value. Like-named read-outs stand apart in the source and are kept apart here.

Columns and labels:
[1] = system: Candida albicans ATCC 10231; assay: Broth microdilution (CLSI), growth, MIC and MFC; format: cell-based; details: for MBC/MFC: C. albicans (MFC); for MIC / inhibition at 64 µg/mL: Candida albicans; for MIC: ATCC10231, C. albicans, 48 h at 37 °C; for inhibition at 64 µg/mL: ATCC10231, 64 µg/mL (highest tested concentration), read-out: C. albicans growth inhibition
[2] = system: Aspergillus flavus ATCC 9643; assay: Broth microdilution (CLSI), growth, MIC and MFC; format: cell-based; details: for MBC/MFC: A. flavus (MFC); for MIC: Aspergillus flavus, ATCC9643, A. flavus, 48 h at 37 °C
[3] = system: Staphylococcus aureus ATCC 29213; assay: Broth microdilution (CLSI), growth, MIC and MBC; format: cell-based; details: for MIC / inhibition at 16 µg/mL: Staphylococcus aureus; for MIC: ATCC29213, S. aureus, 24 h at 37 °C; for MBC/MFC: S. aureus (MBC); for inhibition at 16 µg/mL: ATCC29213, 16 µg/mL, read-out: inhibition of S. aureus growth
[4] = system: human fibroblast BJ ATCC CRL-2522 cell line; assay: Cytotoxic activity, MTT; format: cell-based; details: for toxicity to human fibroblasts, ranking in words: among compounds 1–10
Protocol: The cytotoxic properties of the tested compounds were examined using the human fibroblast BJ ATCC CRL-2522 cell line. The fibroblasts, with a final density of 1 × 10^5 cells per well, were suspended in EMEM medium containing FBS (10%) and antibiotics (penicillin, 100 IU/mL and streptomycin, 100 µg/mL), and incubated in 96-well microplates for 24 h in a humidified atmosphere with 5% CO2 at 37 °C. Next, the EMEM medium was replaced with a fresh medium, with the addition of the tested compounds in the concentration range of 1–64 µg/mL. Cell cultures without the tested derivatives were also prepared, as control samples. All the samples were incubated again for 24 h, under the same conditions. Then, the growth medium was removed from above the fibroblasts, and MTT solution (500 µg/mL) was added to each well. The plates were incubated for 4 h under the same conditions. The MTT solution was removed, and the wells were refilled with 50 µL of DMSO, to dissolve the formazan crystals produced. The spectrophotometric measurement of the samples was carried out at λ = 550 nm, using a SpectraMax i3x Multi-Mode Microplate Reader (Molecular Devices Ltd., Wokingham, UK).
The cell viability was calculated as a percentage of the control samples untreated with the tested compounds with a standard deviation. The experiment with n = 4 was carried out in four independent repetitions.

[5] = system: Escherichia coli ATCC 25922; assay: Broth microdilution (CLSI), growth, MIC and MBC; format: cell-based; details: for MBC/MFC: E. coli (MBC); for MIC: Escherichia coli, ATCC25922, E. coli, 24 h at 37 °C; for antimicrobial properties against E. coli, ranking in words: among compounds 1–10
[6] = system: Pseudomonas aeruginosa ATCC 15442; assay: Broth microdilution (CLSI), growth, MIC and MBC; format: cell-based; details: for MBC/MFC: P. aeruginosa (MBC); for MIC: Pseudomonas aeruginosa, ATCC15442, P. aeruginosa, 24 h at 37 °C
[7] = system: Staphylococcus epidermidis ATCC 12228; assay: Broth microdilution (CLSI), growth, MIC and MBC; format: cell-based; details: for MIC: Staphylococcus epidermidis, ATCC12228, S. epidermidis, 24 h at 37 °C; for MBC/MFC: S. epidermidis (MBC)
A. fumigatus = system: A. fumigatus; parameters: method as in PMID 18570365; details: cited from earlier work
C. albicans = system: C. albicans; parameters: method as in PMID 18570365; details: cited from earlier work
E. coli [8] = system: E. coli; parameters: method as in Salih et al. 12; details: ref Salih et al. 12; cited from earlier work
S. aureus [9] = system: S. aureus; parameters: method as in Salih et al. 12; details: ref Salih et al. 12; cited from earlier work
S. aureus [10] = system: S. aureus; parameters: method as in PMID 34884610; details: cited from earlier work
E. coli [11] = system: E. coli; parameters: method as in PMID 34884610; details: highest tested concentration; cited from earlier work

| Compound | MBC/MFC [1] | MIC [1] | MBC/MFC [2] | MIC [2] | melting point | MIC [3] | MBC/MFC [5] | MIC [5] | MBC/MFC [6] | MIC [6] | MIC [7] | MBC/MFC [3] | MBC/MFC [7] | other results |
| --- | --- | --- | --- | --- | --- | --- | --- | --- | --- | --- | --- | --- | --- | --- |
| C[C@@H]1[C@H](O)[C@@H](C)/C=C/C=C/C=C/C=C/C=C/C=C/C=C/[C@H](O[C@@H]2O[C@H](C)[C@@H](O)[C@H](N)[C@@H]2O)C[C@@H]2O[C@](O)(C[C@@H](O)C[C@@H](O)[C@H](O)CC[C@@H](O)C[C@@H](O)CC(=O)O[C@H]1C)C[C@H](O)[C@H]2C(=O)O [Amphotericin B, reference compound] | 1 µg/mL (≈ 1.08 µM) | 1 µg/mL (≈ 1.08 µM) | 16 µg/mL (≈ 17.3 µM) | 4 µg/mL (≈ 4.33 µM) | – | – | – | – | – | – | – | – | – | – |
| Fc1ccccc1CNCCCCOc1cccc2[nH]c3ccccc3c12 [Compound 1, 4-[4-(2-fluorophenylmethylamino)butoxy]-9H-carbazole] | >64 µg/mL | > 64 µg/mL | >64 µg/mL | > 64 µg/mL | 179 to 181 °C | 64 µg/mL (≈ 177 µM) | >64 µg/mL | > 64 µg/mL | >64 µg/mL | > 64 µg/mL | 64 µg/mL (≈ 177 µM) | – | – | reduction of cell viability ([4]; 32 µg/mL, human fibroblasts, 24 h): about 60%; toxicity to human fibroblasts, ranking in words [4]: least toxic |
| Fc1cccc(CNCCCCOc2cccc3[nH]c4ccccc4c23)c1 [Compound 2, 4-[4-(3-fluorophenylmethylamino)butoxy]-9H-carbazole] | >64 µg/mL | > 64 µg/mL | >64 µg/mL | > 64 µg/mL | – | 32 µg/mL (≈ 88.3 µM) | >64 µg/mL | > 64 µg/mL | >64 µg/mL | > 64 µg/mL | 32 µg/mL (≈ 88.3 µM) | 32 µg/mL (≈ 88.3 µM) | 32 µg/mL (≈ 88.3 µM) | inhibition at 64 µg/mL [1]: ~60%; inhibition at 16 µg/mL [3]: > 60% |
| Fc1ccc(CNCCCCOc2cccc3[nH]c4ccccc4c23)cc1 [Compound 3, 4-[4-(4-fluorophenylmethylamino)butoxy]-9H-carbazole] | >64 µg/mL | > 64 µg/mL | >64 µg/mL | > 64 µg/mL | – | 32 µg/mL (≈ 88.3 µM) | >64 µg/mL | > 64 µg/mL | >64 µg/mL | > 64 µg/mL | 32 µg/mL (≈ 88.3 µM) | – | – | antimicrobial properties against E. coli, ranking in words [5]: strongest antimicrobial properties |
| C[C@@H](NCCCCOc1cccc2[nH]c3ccccc3c12)c1ccccc1 [Compound 4, (R)-4-[4-(1-phenylethylamino)butoxy]-9H-carbazole] | >64 µg/mL | > 64 µg/mL | >64 µg/mL | > 64 µg/mL | – | 32 µg/mL (≈ 89.3 µM) | >64 µg/mL | > 64 µg/mL | >64 µg/mL | > 64 µg/mL | 32 µg/mL (≈ 89.3 µM) | 32 µg/mL (≈ 89.3 µM) | 32 µg/mL (≈ 89.3 µM) | inhibition at 16 µg/mL [3]: > 60% |
| C[C@H](NCCCCOc1cccc2[nH]c3ccccc3c12)c1ccccc1 [Compound 5, (S)-4-[4-(1-phenylethylamino)butoxy]-9H-carbazole] | >64 µg/mL | > 64 µg/mL | >64 µg/mL | > 64 µg/mL | – | 32 µg/mL (≈ 89.3 µM) | >64 µg/mL | > 64 µg/mL | >64 µg/mL | > 64 µg/mL | 32 µg/mL (≈ 89.3 µM) | 64 µg/mL (≈ 179 µM) | 64 µg/mL (≈ 179 µM) | – |
| Br.Fc1ccccc1CNCCCCOc1cccc2[nH]c3ccccc3c12 [Compound 6, 4-[4-(2-fluorophenylmethylamino)butoxy]-9H-carbazole hydrobromide] | >64 µg/mL | > 64 µg/mL | >64 µg/mL | > 64 µg/mL | 180 to 182 °C | 64 µg/mL | >64 µg/mL | > 64 µg/mL | >64 µg/mL | > 64 µg/mL | 64 µg/mL | – | – | inhibition at 64 µg/mL [1]: 15%; antimicrobial properties against E. coli, ranking in words [5]: weakest antimicrobial activity |
| Br.Fc1cccc(CNCCCCOc2cccc3[nH]c4ccccc4c23)c1 [Compound 7, 4-[4-(3-fluorophenylmethylamino)butoxy]-9H-carbazole hydrobromide] | >64 µg/mL | > 64 µg/mL | >64 µg/mL | > 64 µg/mL | 181 to 183 °C | 32 µg/mL | >64 µg/mL | > 64 µg/mL | >64 µg/mL | > 64 µg/mL | 32 µg/mL | 64 µg/mL | 64 µg/mL | – |
| Br.Fc1ccc(CNCCCCOc2cccc3[nH]c4ccccc4c23)cc1 [Compound 8, 4-[4-(4-fluorophenylmethylamino)butoxy]-9H-carbazole hydrobromide] | >64 µg/mL | > 64 µg/mL | >64 µg/mL | > 64 µg/mL | 203 to 206 °C | 32 µg/mL | >64 µg/mL | > 64 µg/mL | >64 µg/mL | > 64 µg/mL | 32 µg/mL | 64 µg/mL | 64 µg/mL | inhibition at 16 µg/mL [3]: 65%; reduction in E. coli growth ([5]; 64 µg/mL (highest tested concentration)): 50%; antimicrobial properties against E. coli, ranking in words [5]: strongest antimicrobial properties |
| Br.C[C@@H](NCCCCOc1cccc2[nH]c3ccccc3c12)c1ccccc1 [Compound 9, (R)-4-[4-(1-phenylethylamino)butoxy]-9H-carbazole hydrobromide] | >64 µg/mL | > 64 µg/mL | >64 µg/mL | > 64 µg/mL | 92 to 96 °C | 32 µg/mL | >64 µg/mL | > 64 µg/mL | >64 µg/mL | > 64 µg/mL | 32 µg/mL | 64 µg/mL | 64 µg/mL | decrease in cell viability ([4]; 4 µg/mL, human fibroblasts, 24 h): 40%; toxicity to human fibroblasts, ranking in words [4]: highest toxicity |
| Br.C[C@H](NCCCCOc1cccc2[nH]c3ccccc3c12)c1ccccc1 [Compound 10, (S)-4-[4-(1-phenylethylamino)butoxy]-9H-carbazole hydrobromide] | >64 µg/mL | > 64 µg/mL | >64 µg/mL | > 64 µg/mL | – | 32 µg/mL | >64 µg/mL | > 64 µg/mL | >64 µg/mL | > 64 µg/mL | 32 µg/mL | 64 µg/mL | 64 µg/mL | – |
| CC1=NN(c2ccccc2)C(=O)C1=NNNC(=O)Cn1c2ccccc2c2ccccc21 [derivative 8, (4-[3-(9H-Carbazol-9-yl-acetyl)triazanylidene]-5-methyl-2-phenyl-2,4-dihydro-3H-pyrazol-3-one)] | – | – | – | – | – | – | – | – | – | – | – | – | – | MIC (A. fumigatus): 10.3 µg/mL (≈ 24.3 µM); MIC (C. albicans): 9.6 µg/mL (≈ 22.6 µM); MIC (E. coli [8]): 6.4 µg/mL (≈ 15.1 µM); MIC (S. aureus [9]): 1.1 µg/mL (≈ 2.59 µM) |
| c1ccc(CNCCCCOc2cccc3[nH]c4ccccc4c23)cc1 [parent compound, 4-[4-(benzylamino)butoxy]-9H-carbazole] | – | – | – | – | – | – | – | – | – | – | – | – | – | reduction in bacterial growth (S. aureus) (S. aureus [10]; 20 µg/mL): 22%; MIC (S. aureus [10]; S. aureus): 30 µg/mL (≈ 87.1 µM); inhibition of E. coli growth (E. coli [11]): 10% |
